Assay results: patent US20260200971A1, “METHODS FOR ISOLATING, DETECTING, AND QUANTIFYING INTERCELLULAR PROTEINS” (Fred Hutchinson Cancer Center, priority 2022, published 2026)
Values belong to the molecule of their own block, whether it stands above or below them.

Columns and labels:
Streptavidin = Streptavidin (Streptomyces avidinii, UniProt P22629); settings: binding to streptavidin; cited from earlier work
MCF7:PIK3CA-mutant cells = assay: CyQuant proliferation assay, alpelisib dose response, PIK3CA mutant cells; type: cell-based; settings: estrogen deprived conditions, 5 days
Protocol: (§1) Dose response curves are shown for three different MCF7 sublines (MCF7:WS8, MCF7:PIK3CA-mutant, MCF7:PIK3CA-WT) in response to treatment with fulvestrant or alpelisib. Proliferation was determined by a CyQuant genomic DNA quantification. Individual points represent the mean of n=8 replicate wells. Curves represent the least-squares fit of the Hill equation. Error bands represent the 95% confidence interval of the fit, as determined using the gradient method.
(§2) The MCF7 cell line harbors two activating E545K mutant PIK3CA alleles. To evaluate the relationship between PIK3CA mutation, AREG expression, and drug resistance, the MCF7 parental line was compared to a previously published isogenic MCF7 line with a wildtype (WT) PIK3CA knock in, which has both mutant alleles corrected (see Beaver et al., Clin. Cancer Res. 19:5413-5422, 2013). […] Then, under estrogen deprived conditions, the growth of MCF7 PIK3CA mutant or MCF7:PIK3CA-WT cells was assessed over 5 days in the presence of varying doses of alpelisib (a PI3K inhibitor) (FIGS. 9B and 9C). Proliferation was quantified by an end-point genomic DNA quantification (CyQuant), and then the concentration-response curve was fit to a Hill equation to extract the IC50 and the asymptotic proliferation in the limit of infinite drug […].

MCF7:PIK3CA-WT cells = assay: CyQuant proliferation assay, alpelisib dose response, PIK3CA-WT cells; type: cell-based; settings: estrogen deprived conditions, 5 days
Protocol: as §1, §2

HCC70 spheroids [1] = assay: Streptavidin dot blot of lysates from labeled 3D cultures; type: cell-based; settings: for streptavidin binding signal, hydrogels containing HCC70 cells versus cell-free EHS matrix: fully embedded EHS matrix hydrogel (7-10 mg/mL protein)
Protocol: To evaluate the extent to which the streptavidin signal produced was due to reactions with azide-labeled proteins, HCC70 breast cancer cell spheroids were cultured in 2% EHS matrix suspension culture with or without azidohomoalanine.
To assess the specificity of the labeling, streptavidin dot blots were performed with homogeneous lysates prepared from each of the labeling conditions. Additionally, unlabeled lysate was included to account for non-specific binding of the streptavidin reagent, itself. […] As a non-specific reaction control, the same labeling conditions were evaluated in “empty” EHS matrix hydrogels, which contained no cells. […] After labeling and washing the samples, homogeneous lysates of all conditions were prepared.
Generation of fully embedded 3D HCC70 cultures. HCC70 spheroids were first seeded in suspension in 2% EHS matrix (following one passage in 3D suspension culture). After allowing spheroids to form for 24 hours, the spheroids were pelleted, the supernatant was aspirated, and the spheroids were directly resuspended in ice-cold EHS matrix (undiluted from the manufacturer's preparation at a typical concentration of 7-10 mg/mL). Resuspension was achieved by slow pipetting up and down forty times on ice with pipette tips that were pre-chilled at −20° C. Next, EHS matrix “domes” were created by pipetting thirty microliters of the EHS matrix/spheroid suspension directly into the center of the well of a 24-well plate with a No. 1.5 polymer coverglass bottom. The plate was flipped upside down to prevent spheroids from settling onto the coverglass, and the plate was incubated at 37° C., 5% CO2, for 1 hour to allow the EHS matrix to form an elastic hydrogel. The domes were then covered with complete cell culture media (1 mL per well) and cultured at 37° C., 5% CO2.
Streptavidin dot blot analysis. Spheroid lysates were prepared as described above. […]
MCF7:WS8 cells [2] = assay: Click labeling and PEA (Olink Explore 3072) differential intercellular protein expression; type: cell-based
Protocol: PEA was used to quantify protein abundance in MCF7:WS8 cells treated with estradiol (1 nM) and fulvestrant concomitantly or with estradiol (1 nM) alone. Proteins from cells treated with or without fulvestrant were ranked by a log 2-fold change in abundance and by a false-discovery rate and identified.
The eluted protein fraction was then subjected to proximity extension assay-based quantification using the Olink® Explore protocol to quantify the abundance of proteins in a 3072-plex panel.
Intercellular protein discovery by the proximity extension assay and NPX normalized protein abundance calculation. Proteins were measured using the Olink® Explore 3072 panel (Olink Proteomics AB, Uppsala, Sweden) according to the manufacturer's instructions. For each experimental replicate, eighty microliters of elution solution (representing labeled proteins from eight hundred thousand cells), was used directly for the Olink Explore protocol.
MCF7:WS8 cells [3] = assay: CyQuant genomic DNA proliferation assay, fulvestrant dose response; type: cell-based; settings: estradiol 1 nM; for IC50: Hill equation fit
Protocol: as §1
Given that AREG induction by estradiol supports estradiol-dependent proliferation, the expectation was that constitutive overexpression of AREG would confer resistance to drugs that inhibit estrogen signaling (e.g., fulvestrant). […] The proliferation of each cell line was evaluated in the presence of estradiol (1 nM) and varying concentrations of fulvestrant using a genomic DNA quantification assay (CyQuant). The Hill equation was then used to determine the IC50 of each cell line following fulvestrant treatment (FIG. 9A). […] Therefore, targeting AREG signaling may alleviate endocrine therapy resistance.

HCC70 spheroids [4] = assay: Confocal fluorescence microscopy of probe labeling in 3D spheroid culture with 2% EHS matrix; type: cell-based; settings: azidohomoalanine 24 hours, probe 30 minutes at 37 degrees Celsius, streptavidin Alexa-Fluor 488
Protocol: To do this, 3D organotypic suspension cultures of the HCC70 breast cancer cell line were generated in the presence of EHS matrix. Next, spheroids were labeled with 500 pM azidohomoalanine for 24 hours, and after washing excess reagent, incubated the spheroids with each of the heterobifunctional probes (three hundred micromolar concentration, 30 minutes at 37 degrees Celsius). […] The samples were also counterstained with DAPI and Phalloidin to visualize the nuclei and the cell surface (F-actin in the HCC70 cells is subcortically localized near the membrane). Lastly, confocal fluorescence microscopy was used to qualitatively assess the spatial distribution of streptavidin labeling in all conditions (FIG. 2).
Azidohomoalanine labeling of 3D HCC70 cultures in 2% EHS matrix. 3D suspension cultures of HCC70 cells in 2% EHS matrix were generated from 2D monolayer culture (as described above), dissociated once, and then plated in fresh 2% EHS matrix. After 48 hours of culture, spheroids were washed three times to remove excess methionine by centrifuging at 200×g for 3 minutes, aspirating the supernatant and resuspending in PBS (with calcium and magnesium). Azidohomoalanine containing media was freshly prepared by diluting a 500 mM azidohomoalanine DMSO stock solution 1,000-fold in methionine reduced 2% EHS matrix suspension media. The washed spheroids were resuspended in azidohomoalanine-containing 2% EHS matrix suspension media (in the same volume as the original suspension), plated in 6-well ultra-low attachment plates, and incubated in TC incubator at 37° C., 5% CO2 for 24 hours.
Spheroids were cultured for 24 hours in the presence of azidohomoalanine to allow the azidohomoalanine to be incorporated into newly synthesized proteins at methionine residues. After 24 hours, spheroids were washed three times with PBS (containing calcium and magnesium) to remove unincorporated azidohomoalanine by centrifugation at 200×g for 1 minute, aspiration of the supernatant, and resuspension in the PBS wash buffer. […]

TAMR cells = assay: Click labeling and PEA (Olink Explore 3072) differential intercellular protein expression; type: cell-based; settings: tamoxifen (100 nM) + estradiol versus estradiol, FDR<0.05, therapy resistant cells
Protocol: Three-dimensional cultures of MCF7:WS8 cells and TAMR cells were generated in 2% EHS matrix suspension. Spheroids were treated with either 1) estradiol (10 nM) or 2) estradiol (10 nM) and tamoxifen (100 nM). […] The eluted protein fraction was then subjected to proximity extension assay-based quantification using the Olink® Explore protocol to quantify the abundance of proteins in a 3072-plex panel.
First, a tamoxifen-induced protein signature was developed for each line by comparing how each cell line responded to tamoxifen treatment. Next, the log 2-fold change enrichment was quantified for cells treated with or without tamoxifen.
MCF7 cells were seeded, as described above, in estrogen-depleted 2% EHS matrix suspension culture (containing charcoal-stripped FBS and phenol red free) for 24 hours to create estrogen-starved spheroids. […]
Proteins were measured using the Olink® Explore 3072 panel (Olink Proteomics AB, Uppsala, Sweden) according to the manufacturer's instructions. […] Libraries were subjected to a bead-based purification and quality was assessed using an Agilent 2100 bioanalyzer (Agilent Technologies, Palo Alto, CA). […]

Claudin 7 = assay: Streptavidin bead capture, elution and Claudin 7 western blot; parameters: species or system human; settings: HCC70 spheroids, mild competitive elution with free biotin versus denaturing elution
Protocol: After lysing the spheroids, biotinylated or desthiobiotinylated proteins were captured using streptavidin-functionalized magnetic polystyrene beads. The unbound fraction was also collected to evaluate the capture efficiency. […] This competitive elution was performed in two sequential incubations at 37° C. and 4° C. The recovery of Claudin 7 was used to evaluate the efficiency with which full-length intercellular proteins were released from the magnetic bead. Claudin 7 is a well-known tight-junction protein associated with intercellular adhesions (FIG. 4A), and it is localized to the pericellular zones in HCC70 spheroids (FIG. 4D). Next, western blots against Claudin 7 were performed in the eluted fraction from the streptavidin pull-down, and the signal intensity of Claudin 7 from the 15 μg of HCC70 spheroid starting lysate was evaluated. […] Streptavidin magnetic bead enrichment. […] For every 100 μL of sample, 200 μL of the 10 mg/mL magnetic bead suspension were used. […] Next a magnetic bead pellet was prepared by separating the beads on a magnetic stand and removing the supernatant. […] Western blot and dot blot quantification. Western blot quantification was performed using ImageJ. […] Integrated fluorescence intensity was calculated using the “Measure” tool, and the background-corrected integrated fluorescence intensity was computed for each band.

[5] = test system: Laminin B1, Laminin C1, and Nidogen; assay: LC/MS label-free quantification of EHS matrix proteins in eluted fraction versus starting lysate; settings: HCC70 spheroids, 2% EHS matrix, streptavidin enrichment and elution with free biotin
Protocol: Compositions of the EHS matrix vary from lot-to-lot, but three of the most abundant proteins EHS matrix preparations are known to be Laminin B1, Laminin C1, and Nidogen. LC/MS proteomics were performed on crude lysates prepared from organotypic cultures of HCC70 spheroids in 2% EHS matrix. As expected, the most abundant proteins in these crude lysates were the EHS matrix proteins, Laminin B1, Laminin Cl, and Nidogen (FIG. 5A). This was true regardless of whether the peptide search was performed against the human or mouse proteome, due to high sequence homology of these proteins between both species. […] Protein concentration of crude lysates was determined using a Pierce BCA assay kit (Thermo Fisher Scientific #23225) according to the manufacturer's protocol. […] Desalted samples were brought up in 2% acetonitrile in 0.1% formic acid and were analyzed by LC/ESI MS/MS with a Thermo Scientific Easy-nLC 1000 (Thermo Scientific, Waltham, MA) nano HPLC system coupled to a tribrid Orbitrap Fusion (Thermo Scientific, Waltham, MA) mass spectrometer. […] Label-free quantification data analysis of LC/MS samples. […] In the specific case in which the abundance of EHS matrix proteins was evaluated, a search was also performed against the Uniprot Mus musculus files (however, due to sequence homology the same conclusions were drawn regardless of whether the Mus musculus database was included in the search). […]

[6] = test system: breast epithelial MCF10A cells; settings: 2D culture, exogenous media supplement; cited from earlier work

Molecule: C[C@@H]1NC(=O)N[C@@H]1CCCCCC(=O)O [Desthiobiotin]
- Kd (Streptavidin): 0.00066 µM
- Koff (Streptavidin): 0.018 s⁻¹
- Kon (Streptavidin): 2.7e7 1/M 1/s

- increase in IC50 by AREG overexpression (MCF7:PIK3CA-mutant cells): 4 fold
Molecule: Cc1nc(NC(=O)N2CCC[C@H]2C(N)=O)sc1-c1ccnc(C(C)(C)C(F)(F)F)c1 [alpelisib]
- effect of AREG overexpression on alpelisib response (MCF7:PIK3CA-WT cells): no effect

Molecule: [N-]=[N+]=NCC[C@H](N)C(=O)O [azidohomoalanine]
- streptavidin binding versus non-labeled azidohomoalanine controls (HCC70 spheroids [1]; 2% EHS matrix suspension, DBCO-PEG4-Desthiobiotin labeling): 10 fold

Molecule: C[C@]12CC[C@@H]3c4ccc(O)cc4CC[C@H]3[C@@H]1CC[C@@H]2O [estradiol]
- number of proteins upregulated by at least 2-fold (MCF7:WS8 cells [2]; estradiol versus estrogen-deprived controls, FDR<0.05): at least 188 proteins

- IC50 (MCF7:WS8 cells [3]; MCF7:WS8, AREG overexpression line): 0.255 µM
- IC50 (MCF7:WS8 cells [3]; MCF7:WS8, control line (ORF stuffer)): 0.034 µM
- increase in IC50, AREG overexpression versus control (MCF7:WS8 cells [3]): 7.5 fold
Molecule: C[C@]12CC[C@@H]3c4ccc(O)cc4C[C@@H](CCCCCCCCC[S+]([O-])CCCC(F)(F)C(F)(F)F)[C@H]3[C@@H]1CC[C@@H]2O (stereo partly drawn) [fulvestrant]
- most significantly upregulated intercellular protein (MCF7:WS8 cells [2]; estradiol (1 nM) + fulvestrant versus estradiol (1 nM) alone, FDR<0.05): ITGB6

Molecule: O=C1N[C@H]2[C@H](CS[C@H]2CCCCC(=O)ON2C(=O)CC(S(=O)(=O)[O-])C2=O)N1.[Na+] (stereo partly drawn) [sulfo-NHS-biotin]
- labeling of the pericellular zone / intercellular spaces (HCC70 spheroids [4]): unable to diffuse into intercellular zones of the organoids
- streptavidin binding signal, hydrogels containing HCC70 cells versus cell-free EHS matrix (HCC70 spheroids [1]): equal

Molecule: CC/C(=C(\c1ccccc1)c1ccc(OCCN(C)C)cc1)c1ccccc1 [tamoxifen]
- number of proteins upregulated at least 2-fold in response to tamoxifen (MCF7:WS8 cells [2]; tamoxifen (100 nM) + estradiol versus estradiol, FDR<0.05, therapy sensitive cells): Thirty
- number of proteins upregulated at least 2-fold in response to tamoxifen (TAMR cells): forty-three

Molecule: DBCO-PEG4-Desthiobiotin
- labeling of the pericellular zone / intercellular spaces (HCC70 spheroids [4]): exhibited pericellular labeling
- streptavidin binding signal, hydrogels containing HCC70 cells versus cell-free EHS matrix (HCC70 spheroids [1]): 10 fold
- recovery of Claudin 7 compared to the DBCO-sulfo-biotin samples (Claudin 7): 10 fold
- lower normalized abundance of Laminin B1, Laminin C1 and Nidogen versus starting lysates [5]: over 10 fold

Molecule: DBCO-sulfo-Biotin
- labeling of the pericellular zone / intercellular spaces (HCC70 spheroids [4]): exhibited pericellular labeling

B1: recombinant amphiregulin: recombinant amphiregulin (AREG), EGF receptor family ligand (protein, UniProt P15514 101-187, looked up)
Amphiregulin: SVRVEQVVKPPQNKTESENTSDKPKRKKKGGKNGKNRRNRKKKNPCNAEFQNFCIHGECKYIEHLEAVTCKCQQEYFGERCGEKSMK
modifications: Amphiregulin
notes: recombinant amphiregulin (AREG), EGF receptor family ligand
- concentrations at which activity is exhibited [6]: 5 to 50 ng/mL
